Experimental data taken from ChEMBL document CHEMBL1151902, “Discovery and SAR of cinnolines/quinolines as liver X receptor (LXR) agonists with binding selectivity for LXRbeta” (Bioorg Med Chem, 2009).
Converted amounts (≈) assume the structure as drawn.

Columns and labels:
[1] = Metabolic stability in mouse liver microsomes assessed as half life; assay type: ADME, Microsome
[2] = Aqueous solubility of the compound; assay type: physicochemical; details: buffer

Cn1ccc2cccc(COc3cccc(-c4c(Cc5ccccc5)nnc5c(C(F)(F)F)cccc45)c3)c21
half-life [1]: < 5 min
solubility [2]: 2 µg/mL (≈ 3.82 µM)
